According to patent US20260102407A1, “TREATMENT METHODS” (priority 2020, published 2026):

Key:
HMEC-1 = test: Endothelial repair following in vitro injury (scratch assay); assay type: cell-based, human; conditions: 0.6 μM, 5% FBS, 48 h
Procedure: Endothelial repair following in vitro injury. HMEC-1 (90-100% confluency) in 6-well plates were washed with PBS, and treated with 0.6 μM compound in MCDB131 containing 5% FBS. A sterile pointed toothpick was used to scrape the cell monolayer and the wells photographed under 4× objective at 0 h and 48 h. Cell regrowth in the denuded zone was determined using Image-Pro Plus (Cybernetics, USA).

THP-1 adhesion to HMEC = test: Endothelial-monocytic cell adhesion assay; assay type: cell-based, human; conditions: 20 ng/ml IL-1β, calcein-labeled THP-1
Procedure: Endothelial-monocytic cell adhesion assay. HMEC (80-90% confluency) in 96-well plates were deprived of serum for 24 h and treated with compound at indicated concentrations for 1 h then incubated with IL-1β (20 ng/ml) for 4 h. Meanwhile THP-1 were labeled with 5 μM calcein (5×10^6 cells/ml, BD Bioscience) for 30 min at 37° C. followed by washing 3 times with PBS. THP-1 (2.5×10^5 cells/well) were then added for 30 min, unbound cells were washed off 3 times in PBS. Adhesion of calcein-labeled THP-1 to the endothelium layer was determined in a fluorescent plate reader at excitation 485 nm and emission 530 nm.

Solubility in water = assay type: physicochemical
VCAM-1 = test: Collagen antibody-induced arthritis, hind limb immunohistochemistry for VCAM-1; assay type: in vivo, mouse; conditions: CAIA mice; Day 14 hind limbs
Procedure: Collagen antibody-induced arthritis. Arthritis was induced in female Balb/c mice (6-8 week-old) as previously described with a commercially obtained cocktail of 5 monoclonal antibodies to type II collagen at 2 mg/mouse (Chondrex, Inc. Redmond, WA) followed by LPS (50 μg/mouse) with or without BT2 (3 or 30 mg/kg mouse) in DMSO vehicle was administered i.p. on Day 3. Hind footpad thickness was measured on Day 9 using digital calipers. Mice were sacrificed on Day 14 and microCT scanning of hind limbs was performed.
Immmunohistochemical staining of hind limbs for VCAM-1 and ICAM-1 and analysis. Formalin-fixed, paraffin embedded of hind limbs were sectioned (5 μm). Dako EnVision Rabbit Kit (cat. K4011, Dako) was used for immmunohistochemical staining for VCAM-1 and ICAM-1. […] Integrated optical density (IOD) of positive staining in ankle joint (tibia and talus) articular cartilage was assessed for VCAM-1 and ICAM-1 using Image-Pro Plus software (Cybernetics, Bethesda, MD, USA). Area (μm^2) of ankle joint articular cartilage was measured using Image-Pro Plus software. Total cell number and positive staining cell number in ankle joint articular cartilage were counted manually using Image-Pro Plus software. […]

FosB/ΔFosB = test: Western blot, serum-inducible FosB/ΔFosB expression in HMEC-1; assay type: cell-based, human; conditions: 30 μM compound, 10% FBS 1 h
Procedure: Western blot analysis with extracts of cells treated with serum. HMEC-1 (80-90% confluency) were arrested in serum-free MCDB131 medium without EGF or hydrocortisone for 20 h. Cells were treated with 30 μM compound in serum-free MCDB131 medium for 4 h, and the medium was changed to complete medium (with 10% FBS with EGF and hydrocortisone) with 30 μM compound for 1 h. Total protein was harvested as previously described in radioimmunoprecipitation (RIPA) lysis buffer with protease inhibitors (Li, Y., et al., Int J Cardiol 220, 185-191 (2016)). Proteins were resolved on 4-20% (w/v) sodium dodecyl sulfate (SDS)-polyacrylamide gradient gels (Bio-Rad Mini-PROTEAN TGX) and transferred to Immobilon-P PVDF membranes (Millipore, USA). Membranes were blocked with 5% skim milk and incubated with rabbit monoclonal FosB (cat. 2251, 1:1000, Cell Signaling, USA), rabbit monoclonal c-Fos antibodies (cat. 2250, 1:1000, Cell Signaling, USA) at 4° C. overnight or mouse monoclonal […] antibodies (cat. A5316, 1:30000, Sigma-Aldrich) at 22° C. for 15 min then incubated with a horseradish peroxidase conjugated secondary goat anti-rabbit (cat. P0448, 1:1000, DAKO Cytomation, Denmark) or goat anti-mouse (cat. P0447, 1:1000, DAKO Cytomation, Denmark) antibodies for 1 h. Chemiluminescence was detected using the Western Lightning Chemiluminescence system (PerkinElmer, USA) and ImageQuant™ LAS 4000 biomolecular imager (GE Healthcare Life Sciences, USA). Band intensity in images generated with the LAS 4000 on automatic exposure with sensitivity/resolution setting high was quantified using NIH ImageJ.

BAEC = test: Endothelial dual chamber migration assay toward VEGF-A165; assay type: cell-based, bovine; conditions: 1 μM; Transwell; 10% FBS and 50 ng/ml VEGF-A165 in lower chamber; 24 h
Procedure: Endothelial dual chamber migration assay. BAEC (6×10^3 cells/well) suspended in DMEM supplemented with 10% FBS were seeded into the upper chamber of 24-well plates fitted with Millicell cell culture inserts (cat. PI8P01250, Millipore). After 48 h, the medium was changed to DMEM supplemented with 0.01% FBS and the cells were incubated for 48 h. Compounds prepared in DMEM containing 0.01% FBS were added to the upper chamber. VEGF-A165 (50 ng/ml, Sigma, cat. V7259) in medium containing 10% FBS was added to the lower chamber. After 24 h, medium from the upper chamber was removed and a cotton swab was used to remove non-migrated cells and excess liquid. The insert was placed in 70% ethanol for 10 min to allow cell fixation and membranes were dried for 10-15 min. Filters were excised and placed on slides. Mounting medium (Fluoroshield™ with DAPI, Sigma, cat. 6057) was added and specimens were visualized using an EVOS FL microscope.

SMILES | endothelial regrowth after mechanical injury in vitro (HMEC-1) | THP-1 adhesion to IL-1β-treated endothelial cells (THP-1 adhesion to HMEC) | solubility in water (Solubility in water) | VCAM-1 expression in bone (VCAM-1) | serum-inducible FosB/ΔFosB expression (Western blot) (FosB/ΔFosB) | migration of BAEC toward VEGF-A165 (BAEC)
CCOC(=O)Nc1ccc2c(c1)C(=O)N(CC)c1ccccc1O2 [BT2, (10-ethyl-11-oxo-10,11-dihydro-dibenzo[b,f][1,4]oxazepin-2-yl)-carbamic acid ethyl ester] | blocked this reparative response | inhibited by BT2 | poorly soluble in water | inhibit VCAM-1 and ICAM-1 expression | blocked the inducible expression of FosB and ΔFosB | inhibited migration
CCN1C(=O)c2cc(N)ccc2Oc2ccccc21 [BT3, 2-amino-10-ethyldibenzo[b,f][1,4]oxazepin-11 (10H)-one] | no such effect | – | – | – | no inhibition | neither BT3, nor PD98059 (allosteric MEK inhibitor), imatinib (tyrosine kinase inhibitor) or tofacitinib (Janus kinase inhibitor) had an inhibitory effect
